Measured values reported in ChEMBL document CHEMBL1132667, “P2-achiral, P'-extended alpha-ketoamide inhibitors of calpain I” (Bioorg Med Chem Lett, 1999).

These molecules were tested against T1, Calpain-1 catalytic subunit (Homo sapiens, UniProt P07384) (assay: Inhibitory activity against recombinant human calpain I).
T1 sequence (P07384 whole entry): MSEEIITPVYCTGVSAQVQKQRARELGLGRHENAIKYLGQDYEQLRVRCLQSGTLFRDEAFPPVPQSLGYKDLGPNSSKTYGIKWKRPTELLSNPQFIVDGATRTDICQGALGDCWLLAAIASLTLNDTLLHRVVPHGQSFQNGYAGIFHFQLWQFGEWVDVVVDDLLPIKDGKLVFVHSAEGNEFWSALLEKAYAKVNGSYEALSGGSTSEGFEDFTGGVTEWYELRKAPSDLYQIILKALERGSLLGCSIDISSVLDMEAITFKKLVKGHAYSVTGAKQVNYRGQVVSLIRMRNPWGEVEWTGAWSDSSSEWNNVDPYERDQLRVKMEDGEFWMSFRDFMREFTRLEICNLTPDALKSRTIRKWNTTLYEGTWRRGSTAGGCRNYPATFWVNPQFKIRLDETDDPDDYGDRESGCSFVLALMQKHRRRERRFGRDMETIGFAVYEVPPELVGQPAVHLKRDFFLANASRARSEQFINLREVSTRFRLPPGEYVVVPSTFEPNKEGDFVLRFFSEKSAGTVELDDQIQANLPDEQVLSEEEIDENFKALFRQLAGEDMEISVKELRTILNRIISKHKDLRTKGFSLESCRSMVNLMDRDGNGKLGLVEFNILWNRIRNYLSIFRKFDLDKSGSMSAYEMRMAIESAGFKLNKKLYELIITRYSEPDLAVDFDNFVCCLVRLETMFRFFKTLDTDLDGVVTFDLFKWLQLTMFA
`N#Cc1cccc(-c2ccc(S(=O)(=O)NCCNC(=O)C(=O)[C@H](Cc3ccccc3)NC(=O)c3c(Cl)cccc3Cl)s2)c1` showed a Ki of 8 nM. For `O=C(NCCNS(=O)(=O)c1ccc(-c2ccccn2)s1)C(=O)[C@H](Cc1ccccc1)NC(=O)c1cc(Cl)ccc1Cl`, the Ki was 49 nM. `CC(=O)N1CCN(Cc2ccc(S(=O)(=O)NCCNC(=O)C(=O)[C@H](Cc3ccccc3)NC(=O)c3c(Cl)cccc3Cl)cc2)CC1` gave a Ki of 71 nM. `O=C(NCCNS(=O)(=O)c1ccc(-c2ccccn2)s1)C(=O)[C@H](Cc1ccccc1)NC(=O)c1c(Cl)cccc1Cl` was tested, and the Ki was 26 nM. With `CC(=O)NCc1cccc(-c2ccc(S(=O)(=O)NCCNC(=O)C(=O)[C@H](Cc3ccccc3)NC(=O)c3c(Cl)cccc3Cl)s2)c1` the Ki was 14 nM. In the case of `O=C(NCCNS(=O)(=O)c1ccc(CN2CCN(c3ccccn3)CC2)cc1)C(=O)[C@H](Cc1ccccc1)NC(=O)c1c(Cl)cccc1Cl`, the Ki is reported as 59 nM. For `O=Cc1cccc(-c2ccc(S(=O)(=O)NCCNC(=O)C(=O)[C@H](Cc3ccccc3)NC(=O)c3c(Cl)cccc3Cl)s2)c1`, the Ki was 15 nM. With `COc1ccc(Cl)c(C(=O)N[C@@H](Cc2ccccc2)C(=O)C(=O)NCCNS(=O)(=O)c2ccc(-c3ccccn3)s2)c1` the Ki was 46 nM. With `O=C(N[C@@H](Cc1ccccc1)C(=O)O)c1c(Cl)cccc1Cl` the Ki was roughly 360 nM. For `O=C(NCCNS(=O)(=O)c1ccc(-c2ccccn2)s1)C(=O)[C@H](Cc1ccccc1)NC(=O)c1cc(C(F)(F)F)cc(C(F)(F)F)c1`, the Ki was 430 nM. For `Cc1cccc(C)c1C(=O)N[C@@H](Cc1ccccc1)C(=O)C(=O)NCCNS(=O)(=O)c1ccc(-c2ccccn2)s1`, the Ki was 130 nM. In the case of `O=C(NCCNS(=O)(=O)c1ccc(-c2ccccn2)s1)C(=O)[C@H](Cc1ccccc1)NC(=O)c1ccccc1`, the Ki is reported as 570 nM. `CC(CCC(=O)N[C@@H](Cc1ccccc1)C(=O)C(=O)NCCNS(=O)(=O)c1ccc(-c2ccccn2)s1)c1ccccc1` (some centres not stated) was tested, and the Ki was 62 nM. `CS(=O)(=O)N[C@H](COCc1ccccc1)C(=O)N[C@@H](Cc1ccccc1)C(=O)C(=O)NCCNS(=O)(=O)c1ccc(-c2ccccn2)s1` showed a Ki of 10 nM. With `O=C(NCCNS(=O)(=O)c1ccc(-c2ccccn2)s1)C(=O)[C@H](Cc1ccccc1)NC(=O)c1c(F)cccc1F` the Ki was 14 nM. Molecule `O=C(NCCNS(=O)(=O)c1ccc(-c2ccccn2)s1)C(=O)[C@H](Cc1ccccc1)NC(=O)c1ccc2c(c1)OCO2` has a Ki greater than 1000 nM.

What follows are molecules tested against T1, Calpain-1 catalytic subunit (assay: Inhibitory activity against recombinant human Calpain 1).
`O=C(CCCc1ccccc1)N[C@@H](Cc1ccccc1)C(=O)C(=O)NCCNS(=O)(=O)c1ccc(-c2ccccn2)s1` was tested, and the Ki was 1100 nM. `CC(C)CC(=O)N[C@@H](Cc1ccccc1)C(=O)C(=O)NCCNS(=O)(=O)c1ccc(-c2ccccn2)s1` showed a Ki of 420 nM. Molecule `O=C(NCCNS(=O)(=O)c1ccc(-c2cccc(CN3CCOCC3)c2)s1)C(=O)[C@H](Cc1ccccc1)NC(=O)c1c(Cl)cccc1Cl` has a Ki of 21 nM. `CC(C)CCC(=O)N[C@@H](Cc1ccccc1)C(=O)C(=O)NCCNS(=O)(=O)c1ccc(-c2ccccn2)s1` gave a Ki of 21 nM. `CC(C)C(=O)N[C@@H](Cc1ccccc1)C(=O)C(=O)NCCNS(=O)(=O)c1ccc(-c2ccccn2)s1` showed a Ki of 1100 nM. In the case of `O=C(Cc1ccc(Cl)nc1Cl)N[C@@H](Cc1ccccc1)C(=O)C(=O)NCCNS(=O)(=O)c1ccc(-c2ccccn2)s1`, the Ki is reported as 57 nM.
